Results taken from patent US8211899B2, “Artificial nucleic acid bases and their use in base pairing natural nucleic acid bases” (Inter-University Research Institute Corporation National …, priority 2005, dated 2012).
Read-outs that look alike come from different tables or passages of the source.

Key:
[1] = system: 1-methylthymine (T); assay: test of base pair formation by UV absorbance change versus mixing ratio; assay type: binding; conditions: mixture with T, total 7.5 mmol/L, mol ratio 0:10 to 10:0, anhydrous DMSO, 25° C., 12 hr
Description: The test of base pair formation was carried out in the following way. The concentration of the mixture of PPT and one of respective N-methylated natural nucleic acid bases (1-methylcytosine (herein after, referred to as “C”), 1-methylthymine (hereinafter, referred to as “T”). 9-methyladenine (hereinafter, referred to as “A”), and 9-methylguanine (hereinafter, referred to as “G”)) was kept constant at 7.5 mmol/L and the ratio (mol ratio) of the mixture was varied from 0:10 to 10:0. The mixture was dissolved at 25° C. in anhydrous dimethyl sulfoxide (DMSO), which had been removed oxygen by freezing-degas method, dissolved argon gas, mixed with DMSO solution of substrates prepared before hand, and allowed to leave for overnight (12 hr.). Then, the change of absorbance in ultraviolet wavelength region was measured according to the following conditions: • (1) The measuring equipment, JASCO V-550 SERIAL NO. C02951260; • (2) The thermal controller, JASCO PSC-498T; • (3) The cell, GL Science Type: AB20-SQ-0.1 (Optical path is 0.1 mm); • (4) The cell adopter, CAS-10-1; • (5) The measured wavelength region, 200-350 nm.
The absorbance of substrates is proportional to a mixing ratio of the substrates (Beer's law) in the case of no interaction between substrates.
For comparison, the base pair formation was examined for A and T, and G and T similarly to Example 3.

[2] = solubility test in solvents at 1 to 100 mM; assay type: physicochemical; conditions: for solubility: warmed to 50° C. and cooled to 27° C.; for solubility in water and organic solvents: water and various organic solvents
Description: The solubility of PPT obtained in Example 1 was examined. For comparison, the solubility of a PPT derivative, wherein R is H in chemical formula I (hereinafter, referred to as “PPT(H)”). For the solubility test, each solvent listed in Table I was used, and the concentration of solute was 1 to 100 mM. The solution with respective concentrations was warmed once to 50° C. and cooled to 27° C. The solution with residues was referred to as “insoluble”, in the contrast the solution without residues was referred to as “soluble”. The concentration of the buffer was 100 mM and the pH was 7.0.

[3] = system: 9-methyladenine (A); assay: test of base pair formation by UV absorbance change versus mixing ratio; assay type: binding; conditions: mixture with A, total 7.5 mmol/L, mol ratio 0:10 to 10:0, anhydrous DMSO, 25° C., 12 hr
Description: (§1) The test of base pair formation was carried out in the following way. […] The mixture was dissolved at 25° C. in anhydrous dimethyl sulfoxide (DMSO), which had been removed oxygen by freezing-degas method, dissolved argon gas, mixed with DMSO solution of substrates prepared before hand, and allowed to leave for overnight (12 hr.). Then, the change of absorbance in ultraviolet wavelength region was measured according to the following conditions: • (1) The measuring equipment, JASCO […]IAL NO. C02951260; • (2) The thermal controller, JASCO PSC-498T; • (3) The cell, GL Science Type: AB20-SQ-0.1 (Optical path is 0.1 mm); • (4) The cell adopter, CAS-10-1; • (5) The measured wavelength region, 200-350 nm. The absorbance changed in accordance with the mixing ratios. Plot of the absorbance change versus to mixing ratios at a wavelength, where the absorbance change was observed, are shown in FIG. 2. The absorbance of substrates is proportional to a mixing ratio of the substrates (Beer's law) in the case of no interaction between substrates.

[4] = system: 9-methylguanine (G); assay: as above; assay type: binding; conditions: mixture with G, total 7.5 mmol/L, mol ratio 0:10 to 10:0, anhydrous DMSO, 25° C., 12 hr
Description: as §1

[5] = system: 1-methylcytosine (C); assay: as above; assay type: binding; conditions: mixture with C, total 7.5 mmol/L, mol ratio 0:10 to 10:0, anhydrous DMSO, 25° C., 12 hr
Description: as §1

[6] = TBE buffer 100 mM pH 7.0, concentration 1 mM
[7] = TBE buffer 100 mM pH 7.0, concentration 100 mM
[8] = phosphate buffer 100 mM pH 7.0, concentration 1 mM
[9] = phosphate buffer 100 mM pH 7.0, concentration 100 mM
[10] = DMF, 27 °C, organic solvent or mixture, thermodynamic from solid, DMF, concentration 1 mM, read-out: solubility
[11] = DMF, 27 °C, organic solvent or mixture, thermodynamic from solid, DMF, concentration 100 mM, read-out: solubility
[12] = DMSO, 27 °C, organic solvent or mixture, thermodynamic from solid, DMSO, concentration 1 mM, read-out: solubility
[13] = DMSO, 27 °C, organic solvent or mixture, thermodynamic from solid, DMSO, concentration 100 mM, read-out: solubility
[14] = TBE buffer, 27 °C, pH 7, aqueous buffer, thermodynamic from solid, TBE buffer 100 mM pH 7.0, concentration 1 mM, read-out: solubility
[15] = TBE buffer, 27 °C, pH 7, aqueous buffer, thermodynamic from solid, TBE buffer 100 mM pH 7.0, concentration 100 mM, read-out: solubility
[16] = methanol, 27 °C, organic solvent or mixture, thermodynamic from solid, methanol, concentration 1 mM, read-out: solubility
[17] = methanol, 27 °C, organic solvent or mixture, thermodynamic from solid, methanol, concentration 100 mM, read-out: solubility
[18] = phosphate buffer, 27 °C, pH 7, aqueous buffer, thermodynamic from solid, phosphate buffer 100 mM pH 7.0, concentration 1 mM, read-out: solubility
[19] = phosphate buffer, 27 °C, pH 7, aqueous buffer, thermodynamic from solid, phosphate buffer 100 mM pH 7.0, concentration 100 mM, read-out: solubility
[20] = water, 27 °C, water, thermodynamic from solid, water, concentration 1 mM, read-out: solubility
[21] = water, 27 °C, water, thermodynamic from solid, water, concentration 100 mM, read-out: solubility

| solubility ([2]; DMF, concentration 1 mM) | solubility ([2]; DMF, concentration 100 mM) | solubility ([2]; DMSO, concentration 1 mM) | solubility ([2]; DMSO, concentration 100 mM) | solubility [2, 6] | solubility [2, 7] | solubility ([2]; methanol, concentration 1 mM) | solubility ([2]; methanol, concentration 100 mM) | solubility [2, 8] | solubility [2, 9] | solubility ([2]; water, concentration 1 mM) | solubility ([2]; water, concentration 100 mM) | SMILES | base pair formation: deviation of absorbance plot from the linear line by Beer's law [1] | also measured |
| --- | --- | --- | --- | --- | --- | --- | --- | --- | --- | --- | --- | --- | --- | --- |
| – | – | – | – | – | – | – | – | – | – | – | – | Cn1cnc2c(N)ncnc21 [A, 9-methyladenine] | deviation from the linear line | – |
| S (S: soluble) | Ins (Ins: insoluble) | S (S: soluble) | Ins (Ins: insoluble) | S (S: soluble) | Ins (Ins: insoluble) | S (S: soluble) | Ins (Ins: insoluble) | S (S: soluble) | Ins (Ins: insoluble) | S (S: soluble) | Ins (Ins: insoluble) | O=c1[nH]c(=O)c2c(=O)[nH]c(=O)n(CCO)c2[nH]1 [CH2CH2OH] | – | – |
| S (S: soluble) | S (S: soluble) | S (S: soluble) | S (S: soluble) | S (S: soluble) | Ins (Ins: insoluble) | S (S: soluble) | Ins (Ins: insoluble) | S (S: soluble) | Ins (Ins: insoluble) | S (S: soluble) | Ins (Ins: insoluble) | C=CCn1c(=O)[nH]c(=O)c2c(=O)[nH]c(=O)[nH]c21 [CH2CH═CH2] | – | – |
| S (S: soluble) | Ins (Ins: insoluble) | S (S: soluble) | Ins (Ins: insoluble) | S (S: soluble) | S (S: soluble) | S (S: soluble) | Ins (Ins: insoluble) | S (S: soluble) | S (S: soluble) | S (S: soluble) | S (S: soluble) | O=C(O)Cn1c(=O)[nH]c(=O)c2c(=O)[nH]c(=O)[nH]c21 [CH2COOH] | – | – |
| – | – | – | – | – | – | – | – | – | – | – | – | Cn1cnc2c(=O)[nH]c(N)nc21 [G, 9-methylguanine] | no deviation from the linear line | – |
| – | – | – | – | – | – | – | – | – | – | – | – | O=c1[nH]c(=O)c2c(=O)[nH]c(=O)[nH]c2[nH]1 [PPT(H), pyrimido [4,5-d]pyrimidine-2,4,5,7-tetraone, reference compound] | – | solubility [2, 10]: < 100 mM; solubility [2, 11]: < 100 mM; solubility [2, 12]: < 100 mM; solubility [2, 13]: < 100 mM; solubility [2, 14]: < 100 mM; solubility [2, 15]: < 100 mM; solubility [2, 16]: < 100 mM; solubility [2, 17]: < 100 mM; solubility [2, 18]: < 100 mM; solubility [2, 19]: < 100 mM; solubility in water and organic solvents [2]: insoluble; solubility in water and organic solvents ([2]; listed as unsubstituted form of pyrimido [4,5-d] pyrimidine -2,4,5,7-tetraone): extremely low; solubility [2, 20]: < 100 mM; solubility [2, 21]: < 100 mM |
| – | – | – | – | – | – | – | – | – | – | – | – | CC(C)(C)[Si](OCCn1c(=O)[nH]c(=O)c2c(=O)[nH]c(=O)[nH]c21)(c1ccccc1)c1ccccc1 [PPT, 1-[2-(t-butyl-diphenyl-silyloxy)-ethyl]-1H, 8H-pyrimido [4,5-d]pyrimidine-2,4,5,7-tetraone] | large deviation from the linear line | base pair formation: deviation of absorbance plot from the linear line by Beer's law [3]: large deviation from the linear line; base pair formation: deviation of absorbance plot from the linear line by Beer's law [4]: large deviation from the linear line; base pair formation: deviation of absorbance plot from the linear line by Beer's law [5]: large deviation from the linear line; solubility [2, 10]: > 1 mM; solubility [2, 11]: > 1 mM; solubility [2, 12]: > 1 mM; solubility [2, 13]: > 1 mM; solubility [2, 14]: > 1 mM; solubility [2, 15]: < 100 mM; solubility [2, 16]: > 1 mM; solubility [2, 17]: < 100 mM; solubility [2, 18]: > 1 mM; solubility [2, 19]: < 100 mM; solubility [2, 20]: > 1 mM; solubility [2, 21]: < 100 mM |
